What was measured:
[1] = tested on: focal ischemia; settings: rats and gerbils; literature; cited from earlier work
[2] = DPPH assay (ability to scavenge nitrogen radicals); parameters: DPPH assay % inhibition: concentration or dose not given beside the values
Experimental: The samples were mixed with DPPH (23.6 μg/ml, in ethanol), and incubated in dark at 37° C. for 30 minutes. The DPPH absorbance reduced by each sample was measured at 517 nm. Vitamin C (Sigma-Aldrich, St. Louis, Mo.) was used as a control, and the DPPH inhibition value (%) was calculated using the following equation: Scavenging activity (%)=[Absmax(Vit.C)−Abssample]/[Absmax(Vit.C)−Absmin(Vit.C)]×100. Equation 1
(§1) The antioxidant activities of the verbenone derivatives of the present invention were measured by the following two different chemical reactions: (1) a single electron transfer-based assay that is a […] [DPPH] assay that measures a decrease in DPPH acting as a free radical generator and a termination probe; and (2) a hydrogen atom transfer assay that is an oxygen radical absorbance capacity [[…]] assay that measures the competitive reaction kinetics of a peroxyl radical generator (AAPH; 2,2′-azobis-(2-methylpropionamide)-dihydrochloride) and each sample acting as an antioxidant for oxidizable fluorescent probe (fluorescein).

[3] = Oxygen radical absorbance capacity (ORAC) assay; parameters: ORAC assay TE25 (trolox equivalents): dose or concentration left out as unconfirmed; settings: for ORAC assay TE25 (trolox equivalents): net AUC sample / net AUC trolox
Experimental: An ORAC assay was performed as disclosed in the literature (Huang, D. et al., J. Agric. Food Chem., 53, 1841-56, 2005).
AAPH (60 mM) and fluorescein (50 nM) were prepared in buffer (75 mM phosphate buffer, pH7.4) without a sample or a sample or a standard (Trolox). Each of the samples and the standard was suspended in a solution of 7% RMCD (randomly methylated beta-cyclodextrin) in 50% acetone. RMCD was used to increase the solubility of oil-soluble samples. Each sample was sufficiently mixed with fluorescein solution (66 nM, 190 μl) by shaking for 5 seconds. After incubation at 37° C. for 10 minutes, AAPH (500 mM, 30 μl) was quickly added to each sample, and a decrease in the fluorescence was measured using a fluorescence microplate reader (Ex=485 nm, Em=530 nm; SpectraMax GeminiEM, Molecular Devices, Sunnyvale, Calif.) at 37° C. at 5-min intervals for 9 hours. To quantify the activity of scavenging peroxyl radicals, AUC (area-under-the-curve) was calculated according to the following equation 2, and net AUC was calculated according to the following equation 3, and the TE (trolox equivalents) of each sample was calculated according to the following equation 4 based on a standard curve of net AUC plotted according to an increase in trolox concentration. AUC=(0.5+f1/f0+f2/f0+f3/f0+ . . . +fn−2/f0+fn−1/f0+fn/f0)×5, Equation 2
wherein f0 is the first fluorescence at 0 min and time I. Net AUC=AUCsample−AUCblank. Equation 3 TE(trolox equivalents) of each sample=[netAUCsample […]]/[net AUCtrolox […]]. Equation 4
as §1

[4] = tested on: cortical neurons; assay: Oxygen-glucose deprivation (OGD)/reoxygenation neuronal injury, LDH release; assay type: cell-based; settings: rat cortical neurons, FIG. 1
Experimental: (§2) Cortical neurons (5×10^5 cells/ml) were isolated from fetal SD rats (16-17 days). Specifically, brain cortex was cut, and cells were isolated from the tissue by repeated trituration using a Pasteur pipette in buffer (Hanks' Balanced Salt Solution, HBSS). The cell suspension (1.8×10^3 cells/mm^2) was dispensed on a plate pretreated with poly-D-lysine ([…])/laminin ([…]). The cells were placed in 10% FBS-containing NBM medium, and incubated in a […]/5% CO2 atmosphere at 37° C. After 15-16 days of the incubation, the experiment was performed.
In order to induce hypoxic-ischemic symptoms in vitro, the incubated cells were placed in an anoxic chamber (partial oxygen pressure <2 mmHg). The cells were incubated glucose-free DMEM while being bubbled with an anaerobic gas mixture (95% N2 and 5% CO2) for 30 minutes to remove residual oxygen, and were incubated at 37° C. for 90 minutes for oxygen deprivation. After 90 minutes, the exposed solution was replaced with 25 mmol/L glucose-containing DMEM medium to stop the OGD reaction, and the cells were restored to normal oxygen conditions. Control cells not exposed to OGD were incubated in glucose (25 mmol/L)-containing DMEM medium provided with an aerobic gas mixture (95% air and 5% CO2). The cells were treated with each sample 30 minutes before, and during the entire period of OGD/re-oxygenation.
(§3) In order to measure cell injury or cell death, the amount of LDH released into the medium was measured using a cell viability measurement kit (Sigma-Aldrich, St. Louis, Mo.). Cell viability was expressed as the percentage of LDH relative to the total cellular LDH level measured in sister cultures lysed by freezing-thawing after the experiment.

[5] = tested on: cortical neurons; assay: NMDA-induced excitotoxicity, LDH release; assay type: cell-based, SD rats; parameters: dose or concentration left out as unconfirmed; settings: cultured cortical neuronal cells; sample 30 min before NMDA; lower than MK-801; FIG. 2
Experimental: as §2
After incubation on the plate for 15-18 days, the cortical neurons were exposed to NMDA ([…]) in a solution (Mg^2+-free Earle's balanced salt solution (EBSS); containing 1.8 mM CaCl2 and 10 mM glycine) for 10 minutes. After exposure, the cells were washed with MgSO4-containing EBSS solution, and incubated in 25 mmol/L glucose-containing DMEM medium in a 5% CO2 incubator at 37° C. 30 Minutes before treatment with NMDA, the cells were treated with each sample […].
as §3

[6] = tested on: cortical neurons; assay: Intracellular levels (DCF fluorescence) of reactive oxygen species after OGD/reoxygenation; assay type: cell-based, SD rats; settings: FIG. 3
Experimental: In order to examine the direct radical scavenging activities of the samples, at 1 hour after reoxygenation, the cells were stained with the fluorescent probe H2DCF-DA (2,7-dihydroichlorofluorescein diacetate) that is widely used to measure intracellular oxidative stress. After 2 hours, the cells were washed in EBSS buffer (containing 25 mM glucose, 1.8 mM CaCal2, 1.2 mM MgSO4 and 2.5 mM probenecid (pH7.4)), and the fluorescence of DCF was measured with a fluorescence microplate reader (SpectraMax GeminiEM; Ex=485 nm, Em=530 nm) or a fluorescence microscope (DM IL HC Fluo, Leica, Wetzlar, Germany) equipped with a digital camera (DFC420C, Leica, Wetzlar Germany). The fluorescence intensity was compensated with autofluorescence (i.e., the fluorescence of cells not loaded with H2DCF-DA).

Structure (SMILES) | time of administration after onset of focal ischemia giving a neuron protection effect [1] | DPPH scavenging activity (in words) ([2]; compared to vitamin C at the same concentration) | DPPH assay % inhibition ([2]; relative to vitamin C (Equation 1)) | ORAC assay Net AUC [3] | ORAC assay TE25 (trolox equivalents) [3] | neuronal injury induced by OGD (LDH release) ([4]; OGD/reoxygenation, comparable to MK801) | cytotoxicity [4] | NMDA-induced neuronal injury [5] | OGD-induced intracellular oxidative stress (DCF fluorescence) [6] | melting point | peroxyl radical scavenging activity in ORAC assay (in words) ([3]; compared to trolox)
C[C@]12N[C@H](Cc3ccccc31)c1ccccc12 [MK-801] | ≤ 1 h |  |  |  |  |  |  |  |  |  | 
CC1(C)[C@@H]2C[C@H]1C(C=Cc1ccc(O)c(O)c1)=CC2=O [Compound 3c, (1S,5R)-4-(3,4-dihydroxystyryl)-6,6-dimethylbicyclo[3.1.1]hept-3-en-2-one] |  | stronger scavenging activity compared to vitamin C | 91.62 ± 3.27% | 131.29 ± 11.97 | 3.11 ± 0.11 | significantly reduced neuronal injury | showed no cytotoxicity | significantly reduced NMDA-induced neuronal injury | reduced OGD-induced intracellular oxidative stress |  | 
CC1(C)[C@@H]2C[C@H]1C(C=Cc1ccc(-n3cccc3)cc1)=CC2=O [Compound 4e, (1S,5R)-4-(4-(1H-pyrrol-1-yl)styryl)-6,6-dimethylbicyclo[3.1.1]hept-3-en-2-one] |  |  |  | 98.31 ± 0.48 | 2.19 ± 0.01 |  |  |  |  | 146 to 148 °C | strong peroxyl radical scavenging activities compared to trolox

— patent publication US10710951B2, “Pharmaceutical composition containing verbenone derivative for treating or preventing neurodegenerative disease” (KOREA UNIVERSITY RESEARCH AND BUSINESS FOUNDATION, priority 2012, dated 2020)
